Laboratory results published in patent US20130143297A1, “STABILIZED LIQUID TENSIDE P[…]” (Henkel AG & Co. KGaA, priority 2010, published 2013).

Tested on: variant F49 of the protease from Bacillus lentus
Assay: Residual proteolytic activity after storage in liquid washing agent (suc-AAPF-pNA)
Format: biochemical
Details: 13 days at 30° C., initial activity = 100%
From the text: A liquid washing agent of the following composition served as a baseline washing agent formulation (all indications in percent by weight): 0.3 to 0.5% xanthan, 0.2 to 0.4% antifoaming agent, 6 to 7% glycerol, 0.3 to 0.5% ethanol, 4 to 7% FAEOS (fatty alcohol ether sulfate), 24 to 28% nonionic surfactants, 1 to 2% sodium citrate (dihydrate), 2 to 4% soda, 14 to 16% coconut fatty acids, 0.5% HEDP (1-hydroxyethane-(1,1-diphosphonic acid)), 0 to 0.4% PVP (polyvinylpyrrolidone), 0 to 0.05% optical brightener, 0 to 0.001% dye, remainder demineralized water.
The aminophthalic acid 4-aminophthalic acid (Alfa Aesar) was incorporated into this formulation as the component stabilizing the hydrolytic enzyme, as indicated below (see Table 1, indications in this regard in wt %). Comparison formulations that contained either boric acid as an enzyme stabilizer, or no enzyme stabilizer, served as controls. The protease used was variant F49 of the protease from Bacillus lentus in accordance with WO 95/23221 (quantity used: 1 wt % active substance).
After storage, the respective residual proteolytic activity was determined by way of the release of the para-nitroaniline (pNA) chromophore from the suc-L-Ala-L-Ala-L-Pro-L-Phe-p-nitroanilide substrate (suc-AAPF-pNA). The protease cleaves the substrate and releases pNA. The release of pNA causes an increase in extinction at 410 nm, the time course of which is an indication of enzymatic activity (see Del Mar et al., 1979). Measurement occurred at a temperature of 25° C., at pH 8.6 and at a wavelength of 410 nm. The measurement time was 5 min, with a measurement interval from 20 s to 60 s. The proteolytic activity values obtained are indicated in Table 1 below, based on an initial activity of 100% when storage began.

[1] = 1.0 wt % stabilizer in baseline liquid washing agent

Row | SMILES | residual proteolytic activity after storage (0.1 wt % stabilizer in baseline liquid washing agent) [%] | residual proteolytic activity after storage (0.5 wt % stabilizer in baseline liquid washing agent) [%] | residual proteolytic activity after storage [1] [%] | residual proteolytic activity after storage (2.0 wt % stabilizer in baseline liquid washing agent) [%]
1 | Nc1ccc(C(=O)O)c(C(=O)O)c1 [4-aminophthalic acid] | 28.3 | 33.3 | 40.8 | 50.0
2 | OB(O)O [boric acid, reference compound] |  |  | 74.9 | 
